Values quoted from earlier work as cited in publication PMC8538004, “Identification of a Novel Neuropeptide S Receptor Antagonist Scaffold Based on the SHA-68 Core” (Pharmaceuticals, 2021).

How the values were obtained:
[1] = system: NPS-stimulated locomotor activity; design: method as in PMID 18337476, PMID 20172007; details: dosed at 50 mg/kg, 0.1 nmol of NPS; cited from earlier work
NPSR = system: NPSR; design: method as in PMID 24964000, PMID 20615693, PMID 18337476, PMID 24171469, PMID 20510609; details: Figure 1, known NPSR antagonists; cited from earlier work

In the case of `O=C(NCc1ccc(F)cc1)N1CCN2C(=O)OC(c3ccccc3)(c3ccccc3)C2C1` (centres unmarked) [SHA-68, 3-Oxo-1,1-diphenyl-tetrahydro-oxazolo[3,4-a]pyrazine-7-carboxylic Acid 4-Fluoro-benzylamide], the “Block of NPS-stimulated locomotor activity” value [1] is given as “significantly block” and the Ke (NPSR) is given as 14 nM.
